ChEMBL document CHEMBL1138368, “Synthesis of thiazolone-based sulfonamides as inhibitors of HCV NS5B polymerase” (Bioorg Med Chem Lett, 2007)

Tests used:
[1] = test system: Hepatitis C virus; test: Antiviral activity against HCV replicon assay; type: functional, organism-based, Hepacivirus hominis
[2] = Inhibition of HCV NS5B polymerase […]; parameters: species or system Hepacivirus hominis

SMILES | EC50 [1] | IC50 [2]
Cc1ccc(S(=O)(=O)NC2=NC(=O)/C(=C/c3cccs3)S2)cc1 | 80 µM | 12 µM
Cc1ccc(C(=O)NC2=NC(=O)/C(=C/c3cccs3)S2)cc1 | 100 µM | 33 µM
CCCCCCN(C1=NC(=O)/C(=C/c2ccc(CC)o2)S1)S(=O)(=O)c1ccc(C)cc1 | 70 µM | > 100 µM
Cc1ccc(S(=O)(=O)NC2=NC(=O)/C(=C/c3ccc(-n4cncn4)cc3)S2)cc1 | 100 µM | 32 µM
Cc1ccc(S(=O)(=O)NC2=NC(=O)/C(=C/c3ccc(N4CCOCC4)cc3)S2)cc1 | 180 µM | 12 µM
Cc1ccc(S(=O)(=O)NC2=NC(=O)/C(=C/c3ccc(C)s3)S2)cc1 | 70 µM | 14 µM
CCc1ccc(/C=C2\SC(NS(=O)(=O)c3ccccc3NC(C)=O)=NC2=O)o1 | 200 µM | 34 µM
CCc1ccc(/C=C2\SC(NC(=O)c3ccc(C)cc3)=NC2=O)o1 | 200 µM | 13 µM
Cc1ccc(S(=O)(=O)NC2=NC(=O)/C(=C/c3ccc(-n4ccnc4)cc3)S2)cc1 | 60 µM | > 100 µM
Cc1ccc(S(=O)(=O)NC2=NC(=O)C(Cc3ccco3)S2)cc1 (stereo not drawn) | 200 µM | 74 µM
CCCCCN(C1=NC(=O)/C(=C/c2ccc(CC)o2)S1)S(=O)(=O)c1ccc(C)cc1 | 55 µM | > 100 µM
CCN(CC)c1ccc(/C=C2\SC(NS(=O)(=O)c3ccc(C)cc3)=NC2=O)cc1 | 90 µM | > 100 µM
Cc1ccc(S(=O)(=O)NC2=NC(=O)/C(=C/c3ccc(C)o3)S2)cc1 |  | 11 µM
CCCCCCCN(C1=NC(=O)/C(=C/c2ccc(CC)o2)S1)S(=O)(=O)c1ccc(C)cc1 | 90 µM | > 100 µM
Cc1ccc(S(=O)(=O)NC2=NC(=O)C(CCCc3ccccn3)S2)cc1 (stereo not drawn) | 180 µM | > 100 µM
Cc1ccc(C(=O)NC2=NC(=O)/C(=C/c3ccc(-c4ccc(-c5csnn5)cc4)o3)S2)cc1 | 70 µM | 11 µM
Cc1ccc(S(=O)(=O)NC2=NC(=O)C(Cc3ccc(I)o3)S2)cc1 (stereo not drawn) | 40 µM | 15 µM
CCCCN(C1=NC(=O)/C(=C/c2ccc(CC)o2)S1)S(=O)(=O)c1ccc(C)cc1 | 33 µM | > 100 µM
Cc1ccc(S(=O)(=O)NC2=NC(=O)C(Cc3ccc(Br)o3)S2)cc1 (stereo not drawn) | 64 µM | 40 µM
CCc1ccc(/C=C2\SC(NS(=O)(=O)c3ccccc3[N+](=O)[O-])=NC2=O)o1 | 90 µM | 18 µM
Cc1ccc(C(=O)NC2=NC(=O)/C(=C/c3ccc(C)o3)S2)cc1 | 60 µM | 16 µM
Cc1ccc(C(=O)NC2=NC(=O)/C(=C/c3ccc(-c4[nH]cnc4C)o3)S2)cc1 | 220 µM | > 100 µM
Cc1ccc(C(=O)NC2=NC(=O)/C(=C/c3ccc(-c4nccs4)o3)S2)cc1 | 120 µM | 44 µM

Continued, values first:

EC50 [1] | IC50 [2] | SMILES
60 µM | 11 µM | Cc1ccc(S(=O)(=O)NC2=NC(=O)/C(=C/c3ccco3)S2)cc1
200 µM | 10 µM | Cc1ccc(S(=O)(=O)NC2=NC(=O)/C(=C/c3cc(C)c(Cl)s3)S2)cc1
50 µM | 2.7 µM | Cc1ccc(S(=O)(=O)NC2=NC(=O)/C(=C/c3ccc(Br)o3)S2)cc1
33 µM | 7.3 µM | CCc1ccc(CC2SC(NS(=O)(=O)c3ccc(C)cc3)=NC2=O)o1 (stereo not drawn)
200 µM | 3.2 µM | Cc1ccc(S(=O)(=O)NC2=NC(=O)/C(=C/c3cc(C)c(C)o3)S2)cc1
25 µM | 1.4 µM | CCc1ccc(/C=C2\SC(NS(=O)(=O)c3ccc(C)cc3)=NC2=O)o1
27 µM | 11 µM | CCc1ccc(/C=C2\SC(NS(=O)(=O)c3ccccc3N)=NC2=O)o1
70 µM | 10 µM | Cc1ccc(S(=O)(=O)NC2=NC(=O)/C(=C/c3ccc(-n4cccn4)cc3)S2)cc1
7 µM | 4.2 µM | Cc1ccc(S(=O)(=O)NC2=NC(=O)/C(=C/c3ccc([N+](=O)[O-])s3)S2)cc1
55 µM | 5.5 µM | Cc1ccc(S(=O)(=O)NC2=NC(=O)/C(=C/c3ccc(-c4ccccc4)o3)S2)cc1
30 µM | 3.2 µM | CCc1ccc(/C=C2\SC(NS(=O)(=O)c3ccc(C(F)(F)F)cc3)=NC2=O)o1
25 µM | 1.4 µM | Cc1ccc(S(=O)(=O)NC2=NC(=O)/C(=C/c3ccc(N4CCCC4)cc3)S2)cc1
20 µM | 1.4 µM | Cc1ccc(S(=O)(=O)NC2=NC(=O)/C(=C/c3ccc(-c4csnn4)cc3)S2)cc1
55 µM | 5 µM | Cc1ccc(S(=O)(=O)NC2=NC(=O)/C(=C/C=C/c3ccco3)S2)cc1
38 µM | 2.8 µM | Cc1ccc(S(=O)(=O)NC2=NC(=O)/C(=C/c3ccc(I)o3)S2)cc1
35 µM | 0.6 µM | Cc1ccc(S(=O)(=O)NC2=NC(=O)/C(=C/C=C/c3ccccn3)S2)cc1
200 µM | 3.2 µM | CCc1ccc(/C=C2\SC(NS(=O)(=O)c3ccc([N+](=O)[O-])cc3)=NC2=O)o1
9 µM | 4.9 µM | Cc1ccc(S(=O)(=O)NC2=NC(=O)/C(=C/c3ccc(-c4nc(C(C)(C)C)cs4)cc3)S2)cc1
40 µM | 8 µM | CCc1ccc(/C=C2\SC(NS(=O)(=O)c3cccs3)=NC2=O)o1
